Data: patent US8524716B2, “Macrocyclic indoles as hepatitis C virus inhibitors” (priority 2007, dated 2013)
Read-outs that look alike come from different tables or passages of the source.

Tests used:
[1] = test system: HCV replicons (NS3-NS5B regions of HCV type 1b) in Huh-Luc cells; experiment: HCV replicon assay in Huh-7 luc/neo (Huh-Luc) cells, luciferase readout; format: cell-based; conditions: three days incubation, luciferase activity
From the text: The compounds of formula (I) were examined for activity in the inhibition of HCV RNA replication in a cellular assay. […] The cellular assay was based on a bicistronic expression construct, as described by Lohmann et al. (1999) Science vol. 285 pp. 110-113 with modifications described by Krieger et al. (2001) Journal of Virology 75: 4614-4624, in a multi-target screening strategy. In essence, the method was as follows.
The assay utilized the stably transfected cell line Huh-7 luc/neo (hereafter referred to as Huh-Luc). This cell line harbors an RNA encoding a bicistronic expression construct comprising the wild type NS3-NS5B regions of HCV type 1b translated from an Internal Ribosome Entry Site (IRES) from encephalomyocarditis virus (EMCV), preceded by a reporter portion (firefly luciferase), and a selectable marker portion (neo^R, neomycine phosphotransferase). The construct is bordered by 5′ and 3′ NTRs (non-translated regions) from HCV type 1b. Continued culture of the replicon cells in the presence of G418 (neo^R) is dependent on the replication of the HCV RNA. The stably transfected replicon cells that express HCV RNA, which replicates autonomously and to high levels, encoding inter alia luciferase, were used for screening the antiviral compounds.
The replicon cells were plated in 384 well plates in the presence of the test and control compounds which were added in various concentrations. Following an incubation of three days, HCV replication was measured by assaying luciferase activity (using standard luciferase assay substrates and reagents and a Perkin Elmer ViewLux™ ultraHTS microplate imager). […] The inhibitory activity of the compound on luciferase activity was monitored on the Huh-Luc cells, enabling a dose-response curve for each test compound. EC50 values were then calculated, which value represents the amount of the compound required to decrease the level of detected luciferase activity by 50%, or more specifically, the ability of the genetically linked HCV replicon RNA to replicate.

HCV NS5B = HCV NS5B (Hepatitis C virus genotype 1b (strain HC-J4), UniProt O92972); experiment: biochemical; format: biochemical
HCV NS5B, sequence (O92972 2420-3010 limits assumed): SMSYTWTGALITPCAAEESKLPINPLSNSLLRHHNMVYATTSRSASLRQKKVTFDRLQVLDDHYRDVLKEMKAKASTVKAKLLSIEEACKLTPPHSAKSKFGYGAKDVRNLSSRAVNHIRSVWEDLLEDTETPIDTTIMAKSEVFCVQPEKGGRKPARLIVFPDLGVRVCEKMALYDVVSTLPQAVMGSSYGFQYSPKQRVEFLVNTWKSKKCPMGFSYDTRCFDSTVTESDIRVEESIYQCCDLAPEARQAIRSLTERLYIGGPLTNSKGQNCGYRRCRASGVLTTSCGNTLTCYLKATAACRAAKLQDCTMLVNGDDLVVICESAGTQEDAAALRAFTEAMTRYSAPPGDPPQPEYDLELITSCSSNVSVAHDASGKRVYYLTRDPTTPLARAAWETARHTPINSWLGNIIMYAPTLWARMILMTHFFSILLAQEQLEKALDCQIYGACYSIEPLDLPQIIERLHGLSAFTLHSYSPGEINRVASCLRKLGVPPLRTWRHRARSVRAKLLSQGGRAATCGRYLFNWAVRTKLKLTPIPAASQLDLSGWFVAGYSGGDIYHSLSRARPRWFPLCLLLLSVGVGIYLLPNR
Method: The cDNA encoding NS5B amino acid 1-570 (HC-J4, genotype 1b, pCV-J4L6S, genebank accession number AF054247) was subcloned into the Nhe I and Xho I restriction sites of pET-21b. Expression of the subsequent His-tagged C-terminal 21 amino acid deleted NS5B was performed as follows:
The NS5B expression construct was transformed into E. coli BL21(DE3) (Novagen, Madison, Wis.). Five milliliters of LB-medium supplemented with ampicillin (50 μg/mL) was inoculated with one colony. When the pre-culture reached an optical density of 0.6 measured at 600 nm, it was transferred to fresh LB-medium supplemented with ampicillin, at a ratio of 1:200. Cells were grown to an optical density at 600 nm of 0.6, after which the expression cultures were shifted to a growth temperature of 20° C. following induction with isopropyl-1-thio-β-D-galactopyranoside and MgCl2 at a final concentration of 0.4 mM and 10 μM, respectively. After ten hours of induction, cells were harvested by centrifugation and resuspended in 20 mM Tris-HCl, pH 7.5, 300 mM NaCl, 10% glycerol, 0.1% NP40, 4 mM MgCl2, 5 mM DTT supplemented with EDTA-free Complete Protease Inhibitor (Roche, Basel, Switzerland). Cell suspensions were disrupted by sonication and incubated with 10-15 mg/L of DNase I (Roche, Basel, Switzerland) for 30 minutes. Cell debris was removed through ultracentrifugation at 30,000×g for 1 hour and clarified cell lysate was flash frozen and stored at −80° C. prior to purification.
Clarified cell lysate was thawed and subsequently loaded onto a 5 mL pre-packed HisTrap FF column equilibrated with 25 mM HEPES, pH 7.5, 500 mM NaCl, 10% glycerol and 5 mM DTT. Proteins were eluted with 500 mM imidazole at a flow rate of 1 mL/min. Fractions containing the protein of interest were applied onto a pre-packed 26/10 HiPrep Desalting Column equilibrated with 25 mM HEPES, pH 7.5, 150 mM NaCl, 10% glycerol and 5 mM DTT. The buffer-exchanged NS5B peak was then applied onto a 20 mL Poly-U Sepharose column. Protein was eluted with an increasing salt gradient and fractions collected. Protein purity was assessed on Nu-PAGE pre-cast gels (Invitrogen, Carlsbad, Calif.). Purified NS5B samples were concentrated using Centri-Prep concentrators (Millipore, Billerica, Mass., USA) and protein concentrations were determined by Bradford assay (Pierce, Rockford, Ill., USA).
Measurement of HCV NS5B polymerization activity was performed by evaluating the amount of radio labeled GTP incorporated by the enzyme in a newly synthesized RNA using heteropolymeric RNA template/primer. The high-throughput RNA dependent RNA polymerase (RdRp) assay was carried out in 384-well plates using 100 nM enzyme, 300 nM 5′-biotinylated oligo(rG13)/poly(rC) primer-template, 600 nM of GTP, and 0.1 μCi of [^3H]GTP in 25 mM Tris-HCl, pH 7.5, 5 mM MgCl2, 25 mM KCl, 17 mM NaCl and 3 mM of dithiothreitol (DTT). Test compounds were dissolved in DMSO. The test compounds were added to the preformed polymerase-template complex, and incubated at room temperature for 15 min before the addition of nucleoside triphosphates (NTP). The 30 μl reaction was terminated after 2 h at 25° C. upon addition of 30 μl A PVT-SPA beads (Amersham Biosciences RPNQ0009, 5 mg/ml in 0.5 M EDTA).

[2] = 100 nM enzyme, [3H]GTP incorporation, 2 h at 25° C., read-out: IC50 (μM) Enzymatic assay

Row | Compound | EC50 [1] [µM] | IC50 (HCV NS5B; [2]) [µM] | EC50 ([1]; Hepatitis C virus, Huh-7, 72 h) [µM] | IC50 (HCV NS5B) [µM]
1 | 17-Cyclohexyl-18-furan-3-yl-9-methyl-10,10-dioxo-10λ^6-thia-1,4,9,11-tetraaza-tricyclo[11.5.2.016,19]icosa-13(20),14,16(19),17-tetraene-3,12-dione [Cpd 28] | 1.58 |  |  | 
2 | O=C1Cn2c(-c3ccoc3)c(C3CCCCC3)c3ccc(cc32)C(=O)NCC/C=C\CCN1 [Cpd 1, 17-cyclohexyl-18-(furan-3-yl)-1,4,11-triaza-tricyclo-[11.5.2.0^16,19]icosa-7,13(20),14,16(19),17-pentaene-3,12-dione] |  | 2.2 | 3.4 | 
3 | O=C1Cn2c(-c3ccoc3)c(C3CCCCC3)c3ccc(cc32)C(=O)NCCCCCCN1 [Cpd 2, 17-Cyclohexyl-18-(furan-3-yl)-1,4,11-triaza-tricyclo[11.5.2.0^16,19]icosa-13(20),14,16(19),17-tetraene-3,12-dione] |  | 9.5 | 4.3 | 
4 | CS(=O)(=O)N1CCN(c2ccc([N+](=O)[O-])cc2COc2ccc(-c3c(C4CCCCC4)c4ccc5cc4n3CC(=O)NCC/C=C\CCNC5=O)cc2)CC1 [Cpd 3, 17-cyclohexyl-18-[4-[2-(4-methanesulfonylpiperazin-1-yl)-5-nitrobenzyloxy]phenyl]-1,4,11-triazatricyclo[11.5.2.0^16,19]icosa-7,13(20),14,16(19),17-pentaene-3,12-dione] |  | 1.1 | 0.72 | 
5 | CS(=O)(=O)N1CCN(c2ccc(N)cc2COc2ccc(-c3c(C4CCCCC4)c4ccc5cc4n3CC(=O)NCC/C=C\CCNC5=O)cc2)CC1 [Cpd 4, 17-cyclohexyl-18-[4-[2-(4-methanesulfonylpiperazin-1-yl)-5-amino-benzyloxy]phenyl]-1,4,11-triazatricyclo[11.5.2.0^16,19]icosa-7,13(20),14,16(19),17-pentaene-3,12-dione] |  | 0.27 | 0.24 | 
6 | CC(=O)Nc1ccc(N2CCN(S(C)(=O)=O)CC2)c(COc2ccc(-c3c(C4CCCCC4)c4ccc5cc4n3CC(=O)NCC/C=C\CCNC5=O)cc2)c1 [Cpd 5, 17-cyclohexyl-18-[4-[2-(4-methanesulfonylpiperazin-1-yl)-5-acetylamino-benzyloxy]phenyl]-1,4,11-triazatricyclo[11.5.2.0^16,19]icosa-7,13(20),14,16(19),17-pentaene-3,12-dione] |  | 0.29 | 0.58 | 
7 | O=C1Cn2c(-c3ccc(O)cc3)c(C3CCCCC3)c3ccc(cc32)C(=O)NCCCCCCN1 [Cpd 8] | > 32 | 2.79 |  | 
8 | COc1ccc(Br)c(COc2ccc(-c3c(C4CCCCC4)c4ccc5cc4n3CC(=O)NCCCCCCNC5=O)cc2)c1 [Cpd 9, 18-[4-(2-bromo-5-methoxybenzyloxy)phenyl]-17-cyclohexyl-1,4,11-triaza-tricyclo[11.5.2.0^16,19]icosa-13(20),14,16(19),17-tetraene-3,12-dione] |  | 13 | 4.8 | 
9 | COc1ccc(-c2ccc(Cl)cc2)c(COc2ccc(-c3c(C4CCCCC4)c4ccc5cc4n3CC(=O)NCCCCCCNC5=O)cc2)c1 [Cpd 10, 18-[4-(4′-chloro-4-methoxybiphenyl-2-ylmethoxy)phenyl]-17-cyclohexyl-1,4,11-triazatricyclo[11.5.2.0^16,19]icosa-13(20),14,16(19),17-tetraene-3,12-dione] |  |  | > 32 | 6.9
10 | O=C1Cn2c(-c3ccc(OCc4cc(N5CCCC5=O)ccc4N4CCOCC4)cc3)c(C3CCCCC3)c3ccc(cc32)C(=O)NCC/C=C\CCN1 [Cpd 11, 17-Cyclohexyl-18-[4-[2-morpholin-4-yl-5-(2-oxo-pyrrolidin-1-yl)-benzyloxy]-phenyl]-1,4,11-triaza-tricyclo[11.5.2.0^16,19]icosa-7,13(20),14,16(19),17-pentaene-3,12-dione] |  | 0.45 | 0.69 | 
11 | CS(=O)(=O)N1CCN(c2ccc(N3CCCC3=O)cc2COc2ccc(-c3c(C4CCCCC4)c4ccc5cc4n3CC(=O)NCC/C=C\CCNC5=O)cc2)CC1 [Cpd 12, 17-Cyclohexyl-18-[4-[2-(4-methanesulfonyl-piperazin-1-yl)-5-(2-oxo-pyrrolidin-1-yl)-benzyloxy]-phenyl]-1,4,11-triaza-tricyclo[11.5.2.0^16,19]icosa-7,13(20),14,16(19),17-pentaene-3,12-dione] |  | 0.36 | 0.27 | 
12 | O=C1Cn2c(-c3ccc(OCc4cc(N5CCCC5=O)ccc4N4CCOCC4)cc3)c(C3CCCCC3)c3ccc(cc32)C(=O)NS(=O)(=O)CC=CCCN1 [Cpd 13, 17-Cyclohexyl-18-[4-[2-morpholin-4-yl-5-(2-oxo-pyrrolidin-1-yl)-benzyloxy]-phenyl]-10,10-dioxo-10λ^6-thia-1,4,11-triaza-tricyclo[11.5.2.0^16,19]icosa-7,13(20),14,16(19),17-pentaene-3,12-dione] |  |  | 2.36 | 0.04
13 | CS(=O)(=O)N1CCN(c2ccc(N3CCCC3=O)cc2COc2ccc(-c3c(C4CCCCC4)c4ccc5cc4n3CC(=O)NCCC=CCS(=O)(=O)NC5=O)cc2)CC1 [Cpd 14, 17-Cyclohexyl-18-[4-[2-(4-methanesulfonyl-piperazin-1-yl)-5-(2-oxo-pyrrolidin-1-yl)-benzyloxy]-phenyl]-10,10-dioxo-10λ^6-thia-1,4,11-triaza-tricyclo-[11.5.2.0^16,19]icosa-7,13(20),14,16(19),17-pentaene-3,12-dione] |  |  | 2.04 | 0.88
14 | CN1C/C=C\CCNC(=O)Cn2c(-c3ccc(Cl)cc3)c(C3CCCCC3)c3ccc(cc32)C(=O)NS1(=O)=O [Cpd 20, 19-(4-Chloro-phenyl)-18-cyclohexyl-10-methyl-11,11-dioxo-11λ^6-thia-1,4,10,12-tetraaza-tricyclo[12.5.2.017,20]henicosa-7,14(21),15,17(20),18-pentaene-3,13-dione] |  |  | 0.61 | 
15 | CN1CCCCCNC(=O)Cn2c(-c3ccccc3)c(C3CCCCC3)c3ccc(cc32)C(=O)NS1(=O)=O [Cpd 22, 18-Cyclohexyl-10-methyl-11,11-dioxo-19-phenyl-11λ^6-thia-1,4,10,12-tetraaza-tricyclo[12.5.2.017,20]henicosa-14(21),15,17(20),18-tetraene-3,13-dione] |  |  | 0.43 | 
16 | CN1CCCCCNC(=O)Cn2c(-c3ccoc3)c(C3CCCCC3)c3ccc(cc32)C(=O)NS1(=O)=O [Cpd 30, 18-Cyclohexyl-19-furan-3-yl-10-methyl-11,11-dioxo-11λ^6-thia-1,4,10,12-tetraaza-tricyclo[12.5.2.017,20]henicosa-14(21),15,17(20),18-tetraene-3,13-dione] |  |  | 0.79 | 
